For assay [1], the system named is S. aureus. The experiment in a line: Antibacterial susceptibility testing: IC90 determination with 10% human serum (STA + 10% HS). It counts as cell-based, Staphylococcus aureus. The note with it: human serum at a final concentration of 10%. The method in brief: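 S. aureus ATCC 29213 was grown in Mueller-Hinton broth with 10% human serum by broth microdilution at 5×10^5 CFU/ml, with 1.25% DMSO and two-fold compound dilutions (typically 63–0.49 μM), for 16-20 h at 35° C. Growth was read by resazurin fluorescence (ex 540/em 590 nm). IC90 is the 90% growth-inhibitory concentration, in μg/ml.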

Assay [2] concerns Moraxella catarrhalis ATCC 8176; b-lactamase negative. The experiment in a line: Antimicrobial spectrum, broth microdilution MIC. The class given is cell-based. The following applies: M. catarrhalis ATCC 8176. The procedure:
(§1) Minimum Inhibitory Concentrations (MICs) were determined in accordance with the Clinical and Laboratory Standards Institute (CLSI) methodology against aerobic bacteria (CLSI M07-A8) (see Clinical and Laboratory Standards Institute. 2009. Methods for dilution antimicrobial susceptibility tests for bacteria that grow aerobically. CLSI document M07-A8, Vol. 29, No. 2.) by the broth microdilution method with cation-adjusted Mueller-Hinton broth (CA-MHB) medium for the majority of organisms, except for Haemophilus influenza, where Haemophilis test medium (HTM) broth was used. Descriptions of the individual organisms can be found in the table. Where possible, ATCC standard strains were tested.
(§2) The inoculum density for the susceptibility testing was standardized to give a final inoculum of approximately 5×10^5 CFU/mL.
(§3) Stock solutions of the compounds were prepared in DMSO at concentrations of 1 mg/mL. Linezolid was prepared in DMSO at a concentration of 2 mg/mL. Stock solutions of all compounds were diluted into CA-MHB to give a range of two-fold dilutions, depending upon the sensitivity of the organism being tested.

Assay [3] concerns Escherichia coli ATCC 25922; reference strain. The experiment in a line: Antimicrobial spectrum, broth microdilution MIC. The class given is cell-based. The following applies: E. coli ATCC 25922. The procedure:
as §1, §2, §3

The test system of assay [4] is Haemophilus influenzae ATCC 49247; reference strain. The experiment in a line: Antimicrobial spectrum, broth microdilution MIC. The following applies: H. influenza ATCC 49247. It counts as cell-based. The procedure:
as §1, §2, §3
For orientation: Dilution methods test growth across graded concentrations, often in twofold steps.

Assay [5] has as its system Staphylococcus aureus ATCC 29213; reference strain MSSA. The experiment in a line: Antimicrobial spectrum, broth microdilution MIC. The note with it: S. aureus ATCC 29213. It counts as cell-based. As for the experimental part: as §1, §2, §3
Assay [6] has as its system Staphylococcus aureus ATCC 43300; reference strain MRSA. The experiment in a line: Antimicrobial spectrum, broth microdilution MIC. The class given is cell-based. The note with it: S. aureus ATCC 43300. As for the experimental part: as §1, §2, §3
Assay [7] has as its system Staphylococcus aureus NRS120; LZD-R. The experiment in a line: Antimicrobial spectrum, broth microdilution MIC. The note with it: S. aureus NRS120. The class given is cell-based. As for the experimental part:
as §1, §2, §3

The subject of assay [8] is Staphylococcus aureus NRS119; LZD-R. The experiment in a line: Antimicrobial spectrum, broth microdilution MIC. The class given is cell-based. The following applies: S. aureus NRS119. The procedure: as §1, §2, §3
Assay [9] has as its system Escherichia coli Tol C mutant. The experiment in a line: Antimicrobial spectrum, broth microdilution MIC. The class given is cell-based. The following applies: E. coli tolC mutant. The procedure:
as §1, §2, §3

Assay [10] has as its system Staphylococcus aureus NRS121; LZD-R. The experiment in a line: Antimicrobial spectrum, broth microdilution MIC. The note with it: S. aureus NRS121. The class given is cell-based. As for the experimental part: as §1, §2, §3

≈ marks a conversion by molar mass, not a printed value.

Turning to `O=C1CCc2cc(/C=C/C(=O)N3C[C@@H]4CC(c5ccccc5)=C[C@@H]4C3)cnc2N1` (single isomer, unassigned) [compound 14], the “STA + 10% HS (361.169) IC90” value in assay [1] came out at 0.19 µg/mL. In addition, the MIC90 in assay [2] came to 0.015 µg/mL (≈ 0.0389 µM); in [3], 4 µg/mL (≈ 10.4 µM); in [4] it was 0.25 µg/mL (≈ 0.649 µM); in assay [5] it was 0.03 µg/mL (≈ 0.0778 µM); in [6], 0.03 µg/mL (≈ 0.0778 µM); in assay [7], 0.03 µg/mL (≈ 0.0778 µM). The MIC90 came to 0.03 µg/mL (≈ 0.0778 µM) in assay [8], 0.25 µg/mL (≈ 0.649 µM) in assay [9] and 0.03 µg/mL (≈ 0.0778 µM) in assay [10].

These data come from patent US9617262B2, “Antibacterial cyclopental[C]pyrrole substituted 3,4-dihydro-1H-[1,8]naphthyridinones” (Janssen Sciences Ireland UC, priority 2011, dated 2017).
